The values below come from PMC6222544, “Fragment-Based Lead Generation of 5-Phenyl-1H-pyrazole-3-carboxamide Derivatives as Leads for Potent Factor Xia Inhibitors” (Molecules : A Journal of Synthetic Chemistry and Natural …, 2018).

Molecules are shown by their SMILES. Where two headings read alike, the source gives them in different places.

Data set [1] concerns the target FXIa. The conditions noted are these: representative FXIa inhibitors, Figure 1; cited from earlier work.
Data set [2] concerns the target T1, human FXIa (Homo sapiens, UniProt P03951).
T1 construct: purchased Haematologic Technologies, Essex Junction, VT, USA
As to the kind of experiment: Inhibition of FXIa in vitro (chromogenic substrate assay). It counts as biochemical. As to the method:
The negative controlwas composed of the same mixed solutions except replacing test compound with DMSO. […] The IC50 was calculated by IBM SPSS Statistics 22.0 (IBM Inc., North Castle, NY, USA) and the Probit function in it. IC50 values were converted to Ki values by the followingrelationship:Ki = IC50/(1 + [S]/Km)

For data set [3], the system named is rabbit plasma. As to the kind of experiment: aPTT in vitro coagulation assay. It is filed as biochemical. The following applies: incubated 3 min at 37 °C. As to the method: A commercially available automatic Coagulation analyzer (Steellex Science Instrument Co., Ltd., Beijing, China) was employed to measure aPTT. The clotting times were also measured using the instrument itself, in accordance with the manufacturer’s instructions. Increasing concentrations of inhibitor or solvent were added to rabbit (Beijing Longan Experimental Animal Breeding Center, SCXK(Jing)2016-0006, Beijing, China) plasma and incubated for 3 min at 37 °C. APTT was determined by automatic Coagulation analyzer.

Where [4] appears, read: human FXIa, chromogenic substrate BIOPHEN CS-21(66), 37 °C, pH 7.4, Ki = IC50/(1 + [S]/Km), read-out: Ki.

T1 sequence (P03951 388-625 limits assumed): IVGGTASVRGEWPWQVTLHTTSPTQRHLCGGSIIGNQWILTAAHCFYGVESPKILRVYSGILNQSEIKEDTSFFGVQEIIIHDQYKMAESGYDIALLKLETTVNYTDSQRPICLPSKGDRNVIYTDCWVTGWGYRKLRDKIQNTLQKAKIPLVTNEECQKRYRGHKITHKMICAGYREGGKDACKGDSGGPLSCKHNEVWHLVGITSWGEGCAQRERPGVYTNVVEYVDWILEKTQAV
T1 sequence (P03951 19-387 partner limits assumed): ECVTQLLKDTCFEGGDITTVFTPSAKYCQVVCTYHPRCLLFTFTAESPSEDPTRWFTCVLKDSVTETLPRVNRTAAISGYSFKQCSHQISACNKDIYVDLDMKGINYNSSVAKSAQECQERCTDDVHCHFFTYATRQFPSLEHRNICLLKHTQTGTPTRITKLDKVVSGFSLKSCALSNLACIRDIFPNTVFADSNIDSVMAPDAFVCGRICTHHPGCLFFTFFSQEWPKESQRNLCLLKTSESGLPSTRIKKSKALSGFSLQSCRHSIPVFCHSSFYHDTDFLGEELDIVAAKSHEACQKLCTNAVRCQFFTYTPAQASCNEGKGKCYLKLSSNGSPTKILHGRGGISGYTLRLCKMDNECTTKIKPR

With `COC1CCN(c2cccc3c2CCN(C(=O)c2cc(-c4cccc(Cl)c4)[nH]n2)[C@@H]3C(=O)Nc2ccc(C(=O)O)cc2)CC1` [Compound 2], the Ki (commonly a measure of affinity in units of concentration, obtained from inhibition or displacement) in data set [1] was 18.4 nM. Take `NC[C@H]1CC[C@H](C(=O)NC(Cc2ccccc2)c2ncc(-c3ccc4c(N)n[nH]c4c3)[nH]2)CC1` (stereo partly drawn) [Compound 4, reference compound]: the Ki in data set [2] (Table 1 values, read-out: FXIa inhibitory potency (Ki)) is 23.5 nM; in data set [2] (setting [4]), 23.5 nM. Further, the “1.5× aPTT (μM) (Rabbit)” value in data set [3] is 3.79 µM. With `CC1CC1C(=O)Nc1ccc(C[C@H](NC(=O)c2cc(-c3cccc(Cl)c3F)[nH]n2)C(=O)Nc2ccc3[nH]c(C(=O)O)cc3c2)cc1` (stereo partly drawn) [Compound 7za, 5-((2S)-2-(5-(3-Chloro-2-fluorophenyl)-1H-pyrazole-3-carboxamido)-3-(4-(2-methylcyclopropane-carboxamido)phenyl)propanamido)-1H-indole-2-carboxylic acid], in data set [3], the “1.5× aPTT (μM) (Rabbit)” value was 43.33 µM. Consider `CN1CCN(C(=O)Nc2ccc(C[C@H](NC(=O)c3cc(-c4cccc(Cl)c4F)[nH]n3)C(=O)Nc3ccc4[nH]c(C(=O)O)cc4c3)cc2)CC1` [Compound 7zb, (S)-5-(2-(5-(3-Chloro-2-fluorophenyl)-1H-pyrazole-3-carboxamido)-3-(4-(4-methylpiperazine-1-carboxamido)phenyl)propanamido)-1H-indole-2-carboxylic acid], for which the melting point (in general, the temperature, or range, at which the solid turns liquid) was 203 to 205 °C (dec.). The Ki in data set [2] (setting [4]) turned out to be 1940 nM. With `O=C(N[C@@H](Cc1ccc(N2CCOCC2=O)cc1)C(=O)Nc1ccc2[nH]c(C(=O)O)cc2c1)c1cc(-c2cccc(Cl)c2F)[nH]n1` [Compound 7zc, (S)-5-(2-(5-(3-Chloro-2-fluorophenyl)-1H-pyrazole-3-carboxamido)-3-(4-(3-oxomorpholino)phenyl)-propanamido)-1H-indole-2-carboxylic acid], the melting point is 200 to 202 °C (dec.). The Ki in data set [2] (setting [4]) was determined as 4820 nM.
